Source: article PMC2213148 (The Journal of Experimental Medicine, 2005)

T1: PPAR-γ (Homo sapiens, UniProt P37231)
T1 sequence (P37231 231-505 limits assumed): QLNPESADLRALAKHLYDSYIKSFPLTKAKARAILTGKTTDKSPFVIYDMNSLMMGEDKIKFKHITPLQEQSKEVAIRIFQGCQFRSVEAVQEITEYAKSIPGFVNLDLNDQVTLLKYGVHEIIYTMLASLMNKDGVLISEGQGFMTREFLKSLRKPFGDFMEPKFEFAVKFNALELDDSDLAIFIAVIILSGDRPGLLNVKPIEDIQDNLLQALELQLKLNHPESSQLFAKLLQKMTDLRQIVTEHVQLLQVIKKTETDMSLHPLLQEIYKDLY


Tests used:
PPAR-γ = molecular target: T1, PPAR-γ; assay: competitive radioligand binding with [3H]rosiglitazone on purified LBD
[1] = molecular target: GST-DRIP-205 fusion protein (UniProt Q15648 1-1581); assay: pull-down
Sequence of GST-DRIP-205 fusion protein (Q15648 whole entry, the tested form may be a part): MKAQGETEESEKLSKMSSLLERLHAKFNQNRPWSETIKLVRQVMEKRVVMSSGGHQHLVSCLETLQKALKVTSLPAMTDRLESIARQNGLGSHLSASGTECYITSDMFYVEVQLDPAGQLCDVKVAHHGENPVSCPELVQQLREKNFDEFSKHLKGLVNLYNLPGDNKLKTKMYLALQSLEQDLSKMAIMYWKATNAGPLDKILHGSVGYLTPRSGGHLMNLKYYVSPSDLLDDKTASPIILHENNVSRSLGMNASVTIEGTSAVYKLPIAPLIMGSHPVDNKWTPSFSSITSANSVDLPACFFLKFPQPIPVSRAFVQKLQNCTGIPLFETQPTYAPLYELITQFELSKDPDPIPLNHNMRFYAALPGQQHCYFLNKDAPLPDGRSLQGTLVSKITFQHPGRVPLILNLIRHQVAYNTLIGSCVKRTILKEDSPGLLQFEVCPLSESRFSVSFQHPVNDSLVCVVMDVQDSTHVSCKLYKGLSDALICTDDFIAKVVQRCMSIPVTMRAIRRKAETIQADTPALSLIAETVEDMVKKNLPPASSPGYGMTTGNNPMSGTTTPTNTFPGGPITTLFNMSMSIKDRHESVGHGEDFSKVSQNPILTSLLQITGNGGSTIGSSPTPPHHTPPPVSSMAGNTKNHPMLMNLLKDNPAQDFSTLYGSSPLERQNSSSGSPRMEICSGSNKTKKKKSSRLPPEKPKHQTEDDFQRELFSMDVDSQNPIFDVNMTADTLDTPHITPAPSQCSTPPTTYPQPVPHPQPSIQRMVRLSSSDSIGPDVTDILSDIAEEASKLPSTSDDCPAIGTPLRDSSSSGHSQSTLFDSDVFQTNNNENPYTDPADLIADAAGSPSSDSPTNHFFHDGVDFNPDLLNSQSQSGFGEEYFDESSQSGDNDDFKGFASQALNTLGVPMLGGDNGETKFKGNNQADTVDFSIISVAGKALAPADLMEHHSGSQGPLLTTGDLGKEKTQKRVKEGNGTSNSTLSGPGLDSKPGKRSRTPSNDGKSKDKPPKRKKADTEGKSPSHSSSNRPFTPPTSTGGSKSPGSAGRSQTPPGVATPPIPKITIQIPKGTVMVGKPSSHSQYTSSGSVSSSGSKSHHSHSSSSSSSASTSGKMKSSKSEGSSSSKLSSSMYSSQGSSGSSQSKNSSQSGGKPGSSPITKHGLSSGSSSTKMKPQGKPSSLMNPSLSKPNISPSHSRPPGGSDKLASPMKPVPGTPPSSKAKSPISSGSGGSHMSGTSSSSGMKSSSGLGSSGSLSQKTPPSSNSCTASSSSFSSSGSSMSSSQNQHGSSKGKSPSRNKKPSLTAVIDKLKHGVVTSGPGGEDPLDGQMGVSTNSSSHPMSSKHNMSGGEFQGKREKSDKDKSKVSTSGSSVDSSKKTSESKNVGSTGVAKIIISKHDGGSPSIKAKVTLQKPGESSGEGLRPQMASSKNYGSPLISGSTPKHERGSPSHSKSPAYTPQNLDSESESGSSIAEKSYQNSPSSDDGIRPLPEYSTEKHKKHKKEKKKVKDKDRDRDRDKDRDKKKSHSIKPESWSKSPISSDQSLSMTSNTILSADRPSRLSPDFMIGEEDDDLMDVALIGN

Row | Ki (PPAR-γ) | amount bound with 5-ASA (5 mM) relative to that with rosiglitazone (10^-5 M) [1] | Molecule
1 | 28.7 mM | – | Nc1ccc(O)c(C(=O)O)c1 [5-ASA]
2 | – | ~150% | [35S]methionine-labeled human PPAR-γ (receptor, UniProt P37231-1 1-505, looked up, [35S]methionine-labeled) MGETLGDSPIDPESDSFTDTLSANISQEMTMVDTEMPFWPTNFGISSVDLSVMEDHSHSFDIKPFTTVDFSSISTPHYEDIPFTRTDPVVADYKYDLKLQEYQSAIKVEPASPPYYSEKTQLYNKPHEEPSNSLMAIECRVCGDKASGFHYGVHACEGCKGFFRRTIRLKLIYDRCDLNCRIHKKSRNKCQYCRFQKCLAVGMSHNAIRFGRMPQAEKEKLLAEISSDIDQLNPESADLRALAKHLYDSYIKSFPLTKAKARAILTGKTTDKSPFVIYDMNSLMMGEDKIKFKHITPLQEQSKEVAIRIFQGCQFRSVEAVQEITEYAKSIPGFVNLDLNDQVTLLKYGVHEIIYTMLASLMNKDGVLISEGQGFMTREFLKSLRKPFGDFMEPKFEFAVKFNALELDDSDLAIFIAVIILSGDRPGLLNVKPIEDIQDNLLQALELQLKLNHPESSQLFAKLLQKMTDLRQIVTEHVQLLQVIKKTETDMSLHPLLQEIYKDLY
